Measurements taken from the NIST ThermoML archive (doi:10.1016/j.fluid.2016.08.002).
± gives the expanded uncertainty stated by the source.

Experiment: xn = mol fraction of the nth substance listed
Settings: Gas, Vibrating tube method

S [hydrogen sulfide] + C
Settings | mass density [kg/m3]
293.23 K, 18686 kPa, x2 = 0.8685 | 200.27 ± 2
293.23 K, 19770 kPa, x2 = 0.8685 | 210.3 ± 1.6
293.23 K, 22173 kPa, x2 = 0.8685 | 230.34 ± 0.92
293.23 K, 22860 kPa, x2 = 0.8685 | 235.56 ± 0.88
293.27 K, 193 kPa, x2 = 0.8197 | 1.54 ± 0.31
293.27 K, 227 kPa, x2 = 0.714 | 1.99 ± 0.38
293.27 K, 498 kPa, x2 = 0.8197 | 4.03 ± 0.43
293.27 K, 560 kPa, x2 = 0.714 | 4.92 ± 0.42
293.27 K, 7261 kPa, x2 = 0.714 | 85.92 ± 1
293.27 K, 7749 kPa, x2 = 0.714 | 94.83 ± 1.1
293.28 K, 1101 kPa, x2 = 0.714 | 9.72 ± 0.5
293.28 K, 1547 kPa, x2 = 0.714 | 14.1 ± 0.6
293.28 K, 2065 kPa, x2 = 0.714 | 19.16 ± 0.62
293.28 K, 8092 kPa, x2 = 0.714 | 103.64 ± 1.1
293.29 K, 2976 kPa, x2 = 0.714 | 28.53 ± 0.74
293.29 K, 3489 kPa, x2 = 0.714 | 33.95 ± 0.81
293.29 K, 8523 kPa, x2 = 0.714 | 108.8 ± 1.1
293.29 K, 10516 kPa, x2 = 0.714 | 145.41 ± 1.4
293.29 K, 11236 kPa, x2 = 0.714 | 161.66 ± 1.4
293.29 K, 13780 kPa, x2 = 0.714 | 213.21 ± 1.9
293.29 K, 19219 kPa, x2 = 0.8685 | 205.31 ± 1.8
293.29 K, 23988 kPa, x2 = 0.714 | 321.16 ± 1.4
293.29 K, 25012 kPa, x2 = 0.714 | 327.5 ± 1.4
293.3 K, 2511 kPa, x2 = 0.714 | 23.63 ± 0.69
293.3 K, 9149 kPa, x2 = 0.714 | 119.96 ± 1.2
293.3 K, 9741 kPa, x2 = 0.714 | 129.36 ± 1.3
293.3 K, 11789 kPa, x2 = 0.714 | 174.33 ± 1.6
293.3 K, 13528 kPa, x2 = 0.714 | 208.17 ± 1.8
293.3 K, 14426 kPa, x2 = 0.714 | 223.09 ± 2
293.3 K, 15049 kPa, x2 = 0.714 | 233.3 ± 2
293.3 K, 15503 kPa, x2 = 0.714 | 239.94 ± 2.1
293.3 K, 22979 kPa, x2 = 0.714 | 314.55 ± 1.5
293.3 K, 23460 kPa, x2 = 0.714 | 317.83 ± 1.5
293.3 K, 24512 kPa, x2 = 0.714 | 324.48 ± 1.4
293.3 K, 25515 kPa, x2 = 0.714 | 330.43 ± 1.4
293.3 K, 25988 kPa, x2 = 0.714 | 333.07 ± 1.4
293.31 K, 6513 kPa, x2 = 0.8197 | 63.51 ± 0.94
293.31 K, 6885 kPa, x2 = 0.714 | 80.49 ± 1
293.31 K, 12964 kPa, x2 = 0.714 | 198.31 ± 1.8
293.31 K, 14523 kPa, x2 = 0.714 | 224.65 ± 2
293.31 K, 16108 kPa, x2 = 0.714 | 249.28 ± 2.2
293.31 K, 21026 kPa, x2 = 0.714 | 300.53 ± 1.6
293.31 K, 22118 kPa, x2 = 0.714 | 308.67 ± 1.5
293.31 K, 22512 kPa, x2 = 0.714 | 311.24 ± 1.5
293.31 K, 23712 kPa, x2 = 0.714 | 319.93 ± 1.5
293.31 K, 26506 kPa, x2 = 0.714 | 335.86 ± 1.4
293.32 K, 5019 kPa, x2 = 0.8197 | 46.91 ± 0.89
293.32 K, 5508 kPa, x2 = 0.8197 | 52.59 ± 0.91
293.32 K, 5943 kPa, x2 = 0.714 | 66.82 ± 0.96
293.32 K, 7004 kPa, x2 = 0.8197 | 68.5 ± 0.96
293.32 K, 7520 kPa, x2 = 0.8197 | 74.89 ± 1
293.32 K, 8507 kPa, x2 = 0.8197 | 87.23 ± 1.1
293.32 K, 9526 kPa, x2 = 0.8197 | 100.87 ± 1.1
293.32 K, 10518 kPa, x2 = 0.8197 | 114.24 ± 1.2
293.32 K, 12220 kPa, x2 = 0.714 | 183.56 ± 1.6
293.32 K, 12521 kPa, x2 = 0.714 | 189.88 ± 1.7
293.32 K, 22053 kPa, x2 = 0.714 | 308.34 ± 1.5
293.33 K, 1434 kPa, x2 = 0.8197 | 12.03 ± 0.55
293.33 K, 3440 kPa, x2 = 0.8197 | 30.85 ± 0.77
293.33 K, 6464 kPa, x2 = 0.714 | 75.29 ± 0.97
293.33 K, 8008 kPa, x2 = 0.8197 | 80.89 ± 1
293.33 K, 9072 kPa, x2 = 0.8197 | 94.8 ± 1.1
293.33 K, 10169 kPa, x2 = 0.714 | 136.99 ± 1.3
293.33 K, 10922 kPa, x2 = 0.8197 | 121.63 ± 1.3
293.33 K, 18012 kPa, x2 = 0.714 | 271.26 ± 2.4
293.33 K, 18543 kPa, x2 = 0.714 | 276.99 ± 2.4
293.33 K, 19012 kPa, x2 = 0.714 | 281.75 ± 2.3
293.33 K, 19476 kPa, x2 = 0.714 | 286.23 ± 2.1
293.33 K, 21863 kPa, x2 = 0.714 | 306.8 ± 1.5
293.33 K, 26879 kPa, x2 = 0.714 | 337.31 ± 1.4
293.33 K, 29517 kPa, x2 = 0.714 | 349.82 ± 1.4
293.33 K, 29998 kPa, x2 = 0.714 | 352.02 ± 1.4
293.34 K, 6006 kPa, x2 = 0.8197 | 58.11 ± 0.94
293.34 K, 14027 kPa, x2 = 0.8197 | 162.75 ± 1.7
293.34 K, 14501 kPa, x2 = 0.8197 | 169.12 ± 1.8
293.34 K, 16524 kPa, x2 = 0.714 | 253.44 ± 2.2
293.34 K, 17035 kPa, x2 = 0.714 | 260.09 ± 2.3
293.34 K, 20081 kPa, x2 = 0.714 | 291.58 ± 1.9
293.34 K, 20504 kPa, x2 = 0.714 | 295.67 ± 1.7
293.34 K, 22090 kPa, x2 = 0.8197 | 248.06 ± 1.2
293.35 K, 936 kPa, x2 = 0.8197 | 7.74 ± 0.47
293.35 K, 2422 kPa, x2 = 0.8197 | 20.5 ± 0.67
293.35 K, 4502 kPa, x2 = 0.8197 | 41.72 ± 0.87
293.35 K, 11685 kPa, x2 = 0.8197 | 130.63 ± 1.4
293.35 K, 17740 kPa, x2 = 0.714 | 267.95 ± 2.4
293.35 K, 21512 kPa, x2 = 0.8197 | 243.53 ± 1.2
293.36 K, 1962 kPa, x2 = 0.8197 | 16.56 ± 0.61
293.36 K, 12068 kPa, x2 = 0.8197 | 136.11 ± 1.4
293.36 K, 12506 kPa, x2 = 0.8197 | 142.15 ± 1.5
293.36 K, 13036 kPa, x2 = 0.8197 | 149.41 ± 1.6
293.36 K, 13500 kPa, x2 = 0.8197 | 155.72 ± 1.6
293.37 K, 10013 kPa, x2 = 0.8197 | 107.38 ± 1.2
293.37 K, 15006 kPa, x2 = 0.8197 | 175.59 ± 1.8
293.37 K, 22488 kPa, x2 = 0.8197 | 251.05 ± 1.2
293.37 K, 26028 kPa, x2 = 0.8197 | 274.53 ± 1.1
293.37 K, 27520 kPa, x2 = 0.8197 | 283 ± 1
293.37 K, 29405 kPa, x2 = 0.8197 | 292.65 ± 0.99
293.37 K, 29932 kPa, x2 = 0.8197 | 295.13 ± 0.99
293.38 K, 2915 kPa, x2 = 0.8197 | 26.63 ± 0.73
293.38 K, 27986 kPa, x2 = 0.8197 | 285.56 ± 1
293.38 K, 28437 kPa, x2 = 0.8197 | 287.96 ± 1
293.38 K, 28979 kPa, x2 = 0.8197 | 290.66 ± 1
293.39 K, 5407 kPa, x2 = 0.714 | 58.83 ± 0.93
293.39 K, 22971 kPa, x2 = 0.8197 | 254.58 ± 1.1
293.39 K, 24024 kPa, x2 = 0.8197 | 261.83 ± 1.1
293.39 K, 24659 kPa, x2 = 0.8197 | 266.01 ± 1.1
293.4 K, 17009 kPa, x2 = 0.8197 | 200 ± 2.1
293.4 K, 29019 kPa, x2 = 0.714 | 347.54 ± 1.4
293.41 K, 16017 kPa, x2 = 0.8197 | 188.26 ± 1.9
293.41 K, 17526 kPa, x2 = 0.8197 | 205.67 ± 2.1
293.41 K, 19019 kPa, x2 = 0.8197 | 221.14 ± 2
293.41 K, 19519 kPa, x2 = 0.8197 | 225.91 ± 1.8
293.41 K, 20054 kPa, x2 = 0.8197 | 230.93 ± 1.6
293.41 K, 21059 kPa, x2 = 0.8197 | 239.83 ± 1.2
293.41 K, 23490 kPa, x2 = 0.8197 | 258.21 ± 1.1
293.41 K, 25538 kPa, x2 = 0.8197 | 271.56 ± 1.1
293.41 K, 27022 kPa, x2 = 0.8197 | 280.18 ± 1
293.42 K, 3851 kPa, x2 = 0.714 | 38.01 ± 0.83
293.42 K, 3941 kPa, x2 = 0.8197 | 35.88 ± 0.81
293.42 K, 18033 kPa, x2 = 0.8197 | 211.2 ± 2.2
293.42 K, 18536 kPa, x2 = 0.8197 | 216.41 ± 2.2
293.42 K, 20511 kPa, x2 = 0.8197 | 234.95 ± 1.4
293.42 K, 25034 kPa, x2 = 0.8197 | 268.44 ± 1.1
293.42 K, 26523 kPa, x2 = 0.8197 | 277.36 ± 1
293.42 K, 28586 kPa, x2 = 0.714 | 345.52 ± 1.4
293.43 K, 4386 kPa, x2 = 0.714 | 46.59 ± 0.85
293.43 K, 28085 kPa, x2 = 0.714 | 343.33 ± 1.4
293.44 K, 4823 kPa, x2 = 0.714 | 51.27 ± 0.88
293.45 K, 15532 kPa, x2 = 0.8197 | 182.32 ± 1.9
293.45 K, 16485 kPa, x2 = 0.8197 | 193.92 ± 2
293.53 K, 27520 kPa, x2 = 0.714 | 340.85 ± 1.4
293.64 K, 27145 kPa, x2 = 0.714 | 339.08 ± 1.4
